In ChEMBL document CHEMBL4507276 (2021):

Legend:
[1] = biological target: T1, Discoidin domain-containing receptor 2 (Homo sapiens) (UniProt Q16832); assay: DDR2 Invitrogen selectivity data (BI); settings: Compound concentration 3.0 uM
T1 sequence (whole entry): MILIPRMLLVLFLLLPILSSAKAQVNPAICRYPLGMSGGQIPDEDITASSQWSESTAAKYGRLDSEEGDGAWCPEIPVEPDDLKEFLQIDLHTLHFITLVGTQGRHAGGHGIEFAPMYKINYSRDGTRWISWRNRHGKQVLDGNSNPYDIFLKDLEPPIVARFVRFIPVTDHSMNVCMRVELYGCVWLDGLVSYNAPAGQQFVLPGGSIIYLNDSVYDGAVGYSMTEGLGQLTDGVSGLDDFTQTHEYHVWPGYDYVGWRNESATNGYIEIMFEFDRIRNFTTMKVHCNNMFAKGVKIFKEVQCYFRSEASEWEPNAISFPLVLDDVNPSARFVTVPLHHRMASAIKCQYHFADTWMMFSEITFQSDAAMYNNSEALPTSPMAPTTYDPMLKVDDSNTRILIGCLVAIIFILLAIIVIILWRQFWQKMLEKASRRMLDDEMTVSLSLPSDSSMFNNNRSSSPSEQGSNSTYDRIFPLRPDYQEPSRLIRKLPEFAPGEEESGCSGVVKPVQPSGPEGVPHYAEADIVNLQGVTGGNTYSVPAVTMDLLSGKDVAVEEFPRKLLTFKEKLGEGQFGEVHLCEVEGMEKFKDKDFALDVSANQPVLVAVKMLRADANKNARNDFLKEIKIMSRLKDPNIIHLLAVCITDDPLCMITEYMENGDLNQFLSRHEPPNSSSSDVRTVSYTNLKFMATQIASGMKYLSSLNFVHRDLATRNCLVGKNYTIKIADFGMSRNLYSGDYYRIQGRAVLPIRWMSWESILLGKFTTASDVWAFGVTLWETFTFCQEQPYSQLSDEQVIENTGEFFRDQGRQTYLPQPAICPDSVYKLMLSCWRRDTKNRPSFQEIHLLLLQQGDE

[2] = system: Proto-oncogene tyrosine-protein kinase receptor Ret (Homo sapiens), P07949 [Y791F]; assay: RET Y791F Invitrogen selectivity data (BI); settings: Compound concentration 3.0 uM
Proto-oncogene tyrosine-protein kinase receptor Ret (Homo sapiens), P07949 [Y791F], sequence (P07949 whole entry Y791F): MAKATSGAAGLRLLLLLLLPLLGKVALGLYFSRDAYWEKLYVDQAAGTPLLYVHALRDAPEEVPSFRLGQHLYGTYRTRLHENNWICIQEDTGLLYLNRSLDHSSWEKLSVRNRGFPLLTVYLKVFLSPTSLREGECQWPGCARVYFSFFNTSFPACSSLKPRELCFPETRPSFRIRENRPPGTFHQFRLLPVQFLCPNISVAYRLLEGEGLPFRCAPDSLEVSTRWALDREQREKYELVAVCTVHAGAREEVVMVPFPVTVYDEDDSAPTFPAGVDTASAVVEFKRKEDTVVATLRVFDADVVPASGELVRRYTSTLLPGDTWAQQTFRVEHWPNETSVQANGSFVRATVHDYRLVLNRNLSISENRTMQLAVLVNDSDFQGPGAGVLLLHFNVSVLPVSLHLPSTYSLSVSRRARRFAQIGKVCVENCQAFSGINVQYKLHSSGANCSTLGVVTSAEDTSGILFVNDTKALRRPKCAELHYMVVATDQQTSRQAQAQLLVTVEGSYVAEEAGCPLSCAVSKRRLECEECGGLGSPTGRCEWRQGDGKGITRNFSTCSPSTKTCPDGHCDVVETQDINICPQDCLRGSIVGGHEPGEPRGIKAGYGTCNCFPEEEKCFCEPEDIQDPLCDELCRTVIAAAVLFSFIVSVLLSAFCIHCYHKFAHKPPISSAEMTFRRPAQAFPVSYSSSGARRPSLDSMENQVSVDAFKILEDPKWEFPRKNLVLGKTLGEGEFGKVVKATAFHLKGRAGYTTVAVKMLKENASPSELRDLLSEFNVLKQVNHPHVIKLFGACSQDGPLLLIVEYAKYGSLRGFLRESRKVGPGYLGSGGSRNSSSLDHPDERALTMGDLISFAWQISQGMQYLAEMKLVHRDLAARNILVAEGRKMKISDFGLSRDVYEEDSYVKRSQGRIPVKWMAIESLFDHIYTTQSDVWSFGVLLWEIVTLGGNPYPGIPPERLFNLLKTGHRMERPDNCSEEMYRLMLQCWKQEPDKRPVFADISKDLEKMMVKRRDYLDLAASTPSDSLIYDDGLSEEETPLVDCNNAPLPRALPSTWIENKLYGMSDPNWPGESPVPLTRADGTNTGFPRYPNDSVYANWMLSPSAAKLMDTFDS

[3] = biological target: D(2) dopamine receptor (Homo sapiens) (UniProt P14416); assay: D2SH_AGON Cerep selectivity data (BI); settings: filed as agonist, Compound concentration 20.0 uM
D(2) dopamine receptor (Homo sapiens), sequence (P14416 whole entry): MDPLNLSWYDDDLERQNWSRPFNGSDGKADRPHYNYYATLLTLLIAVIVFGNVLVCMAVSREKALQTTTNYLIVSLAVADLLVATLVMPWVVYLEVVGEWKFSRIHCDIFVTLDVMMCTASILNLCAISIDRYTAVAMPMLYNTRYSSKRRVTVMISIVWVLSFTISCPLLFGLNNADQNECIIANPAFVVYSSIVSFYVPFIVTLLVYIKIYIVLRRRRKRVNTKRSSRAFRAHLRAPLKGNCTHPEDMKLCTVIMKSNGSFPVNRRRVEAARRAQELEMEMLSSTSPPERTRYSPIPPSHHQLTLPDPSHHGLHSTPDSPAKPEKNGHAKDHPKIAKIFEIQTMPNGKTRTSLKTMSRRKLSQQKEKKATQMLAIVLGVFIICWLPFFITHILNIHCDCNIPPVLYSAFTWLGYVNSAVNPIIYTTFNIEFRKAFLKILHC

[4] = biological target: Cyclin-dependent kinase 2/cyclin A (Homo sapiens) (UniProt P24941+P20248+P78396); assay: CDK2(CYCA)_CE Cerep selectivity data (BI); assay type: protein-complex assay; settings: Compound concentration 20.0 uM
[5] = biological target: T2, cAMP-dependent protein kinase catalytic subunit PRKX (Homo sapiens) (UniProt P51817); assay: PRKX Invitrogen selectivity data (BI); settings: Compound concentration 3.0 uM
T2 sequence (whole entry): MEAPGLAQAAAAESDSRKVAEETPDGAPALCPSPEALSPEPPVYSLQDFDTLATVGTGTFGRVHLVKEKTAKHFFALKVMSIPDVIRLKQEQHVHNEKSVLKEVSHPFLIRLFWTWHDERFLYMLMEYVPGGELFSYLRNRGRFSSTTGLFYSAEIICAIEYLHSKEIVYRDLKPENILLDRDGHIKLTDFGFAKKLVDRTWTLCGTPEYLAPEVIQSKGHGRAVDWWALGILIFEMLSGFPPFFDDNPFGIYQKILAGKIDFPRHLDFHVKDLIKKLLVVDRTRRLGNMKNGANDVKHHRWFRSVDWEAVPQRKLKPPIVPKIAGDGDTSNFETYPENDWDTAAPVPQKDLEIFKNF

[6] = biological target: Protein kinase C eta type (Homo sapiens) (UniProt P24723); assay: PRKCH Invitrogen selectivity data (BI); settings: Compound concentration 3.0 uM
Protein kinase C eta type (Homo sapiens), sequence (P24723 whole entry): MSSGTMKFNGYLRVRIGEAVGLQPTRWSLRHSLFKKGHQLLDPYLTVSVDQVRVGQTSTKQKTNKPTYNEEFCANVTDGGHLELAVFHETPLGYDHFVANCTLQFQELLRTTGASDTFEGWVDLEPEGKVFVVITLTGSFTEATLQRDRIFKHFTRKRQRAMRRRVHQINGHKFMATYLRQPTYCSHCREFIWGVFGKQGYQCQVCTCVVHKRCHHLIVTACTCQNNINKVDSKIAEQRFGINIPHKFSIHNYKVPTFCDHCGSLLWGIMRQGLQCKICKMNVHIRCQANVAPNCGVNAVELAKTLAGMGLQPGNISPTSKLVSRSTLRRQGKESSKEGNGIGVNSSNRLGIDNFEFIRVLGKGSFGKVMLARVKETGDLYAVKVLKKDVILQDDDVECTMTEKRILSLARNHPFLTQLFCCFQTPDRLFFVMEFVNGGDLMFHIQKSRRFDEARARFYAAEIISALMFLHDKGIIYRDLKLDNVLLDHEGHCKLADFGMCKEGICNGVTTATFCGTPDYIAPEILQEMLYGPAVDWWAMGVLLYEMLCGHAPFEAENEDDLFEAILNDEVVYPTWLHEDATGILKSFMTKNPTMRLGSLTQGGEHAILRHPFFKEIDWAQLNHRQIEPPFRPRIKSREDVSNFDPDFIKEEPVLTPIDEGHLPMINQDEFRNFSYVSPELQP

[7] = biological target: Mast/stem cell growth factor receptor Kit (Homo sapiens) (UniProt P10721); assay: KIT Invitrogen selectivity data (BI); settings: Compound concentration 3.0 uM
Mast/stem cell growth factor receptor Kit (Homo sapiens), sequence (P10721 whole entry): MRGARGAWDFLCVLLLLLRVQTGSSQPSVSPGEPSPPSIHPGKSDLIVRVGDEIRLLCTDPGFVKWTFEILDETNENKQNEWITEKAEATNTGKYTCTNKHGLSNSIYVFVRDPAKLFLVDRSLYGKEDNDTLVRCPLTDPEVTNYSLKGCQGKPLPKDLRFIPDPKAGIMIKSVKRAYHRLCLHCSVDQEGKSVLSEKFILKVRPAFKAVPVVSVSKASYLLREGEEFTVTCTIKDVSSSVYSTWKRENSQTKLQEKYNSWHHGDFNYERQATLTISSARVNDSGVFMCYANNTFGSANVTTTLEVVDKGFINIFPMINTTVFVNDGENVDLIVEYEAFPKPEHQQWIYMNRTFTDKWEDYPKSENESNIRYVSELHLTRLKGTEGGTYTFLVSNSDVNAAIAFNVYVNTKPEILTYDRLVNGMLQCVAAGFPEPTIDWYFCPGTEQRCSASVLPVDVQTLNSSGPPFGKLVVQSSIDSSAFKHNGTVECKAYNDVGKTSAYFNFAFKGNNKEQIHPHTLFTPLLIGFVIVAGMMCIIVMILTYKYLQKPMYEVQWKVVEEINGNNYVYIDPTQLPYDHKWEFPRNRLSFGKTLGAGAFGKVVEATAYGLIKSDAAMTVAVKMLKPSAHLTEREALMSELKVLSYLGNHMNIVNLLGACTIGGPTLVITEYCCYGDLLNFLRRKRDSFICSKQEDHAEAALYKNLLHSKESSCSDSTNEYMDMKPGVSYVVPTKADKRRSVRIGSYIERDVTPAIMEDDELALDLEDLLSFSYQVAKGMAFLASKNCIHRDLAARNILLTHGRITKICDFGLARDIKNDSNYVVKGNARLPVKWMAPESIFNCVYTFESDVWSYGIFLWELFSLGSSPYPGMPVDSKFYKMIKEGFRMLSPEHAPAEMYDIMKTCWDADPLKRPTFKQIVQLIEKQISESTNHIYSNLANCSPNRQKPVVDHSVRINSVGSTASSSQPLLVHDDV

[8] = biological target: T3, Serine/threonine-protein kinase Nek2 (Homo sapiens) (UniProt P51955); assay: NEK2 Invitrogen selectivity data (BI); settings: Compound concentration 3.0 uM
T3 sequence (whole entry): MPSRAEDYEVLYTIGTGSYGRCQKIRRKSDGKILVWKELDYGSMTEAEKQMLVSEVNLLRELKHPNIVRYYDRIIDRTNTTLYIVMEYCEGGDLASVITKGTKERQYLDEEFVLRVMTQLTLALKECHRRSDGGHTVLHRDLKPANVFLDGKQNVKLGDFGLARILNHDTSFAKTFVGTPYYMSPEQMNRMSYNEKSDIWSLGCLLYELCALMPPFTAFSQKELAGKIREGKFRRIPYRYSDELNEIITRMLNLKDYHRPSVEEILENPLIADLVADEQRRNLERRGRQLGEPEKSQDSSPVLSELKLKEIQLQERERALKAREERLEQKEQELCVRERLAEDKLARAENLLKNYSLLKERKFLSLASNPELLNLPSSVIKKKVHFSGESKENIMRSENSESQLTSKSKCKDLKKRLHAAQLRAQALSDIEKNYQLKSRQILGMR

[9] = biological target: Phosphatidylinositol 4,5-bisphosphate 3-kinase catalytic subunit gamma isoform (Homo sapiens) (UniProt P48736); assay: PIK3CG Invitrogen selectivity data (BI); settings: Compound concentration 3.0 uM
Phosphatidylinositol 4,5-bisphosphate 3-kinase catalytic subunit gamma isoform (Homo sapiens), sequence (P48736 whole entry, looked up, canonical isoform): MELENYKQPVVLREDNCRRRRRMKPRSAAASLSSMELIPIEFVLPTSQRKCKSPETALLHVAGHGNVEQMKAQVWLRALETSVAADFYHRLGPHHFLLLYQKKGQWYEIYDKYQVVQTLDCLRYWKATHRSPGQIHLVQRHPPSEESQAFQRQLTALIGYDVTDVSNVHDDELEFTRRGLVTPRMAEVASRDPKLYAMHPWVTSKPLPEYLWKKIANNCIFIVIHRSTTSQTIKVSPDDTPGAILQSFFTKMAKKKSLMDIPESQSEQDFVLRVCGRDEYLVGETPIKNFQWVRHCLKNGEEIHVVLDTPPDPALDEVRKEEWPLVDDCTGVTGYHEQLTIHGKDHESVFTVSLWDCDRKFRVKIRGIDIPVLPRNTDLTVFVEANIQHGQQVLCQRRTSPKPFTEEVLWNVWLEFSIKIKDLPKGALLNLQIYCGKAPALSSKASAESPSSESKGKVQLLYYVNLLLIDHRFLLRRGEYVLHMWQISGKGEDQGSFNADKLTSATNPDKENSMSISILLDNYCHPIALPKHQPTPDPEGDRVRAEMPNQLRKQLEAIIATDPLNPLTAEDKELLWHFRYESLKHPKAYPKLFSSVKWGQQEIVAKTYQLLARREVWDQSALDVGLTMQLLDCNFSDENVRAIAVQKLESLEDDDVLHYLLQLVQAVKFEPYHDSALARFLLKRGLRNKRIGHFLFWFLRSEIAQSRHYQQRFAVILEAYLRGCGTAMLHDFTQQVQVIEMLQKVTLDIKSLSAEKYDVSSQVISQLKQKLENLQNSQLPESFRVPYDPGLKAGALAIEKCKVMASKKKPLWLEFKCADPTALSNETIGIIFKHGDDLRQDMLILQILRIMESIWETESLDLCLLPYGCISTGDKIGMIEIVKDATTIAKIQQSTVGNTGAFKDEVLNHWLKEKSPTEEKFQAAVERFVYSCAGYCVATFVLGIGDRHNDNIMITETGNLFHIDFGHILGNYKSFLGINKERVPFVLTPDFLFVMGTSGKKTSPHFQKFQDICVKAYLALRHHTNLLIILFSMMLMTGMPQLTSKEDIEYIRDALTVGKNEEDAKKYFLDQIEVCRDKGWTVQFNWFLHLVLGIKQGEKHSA

[10] = biological target: T4, MAP kinase-activated protein kinase 5 (Homo sapiens) (UniProt Q8IW41); assay: MAPKAPK5 Invitrogen selectivity data (BI); settings: Compound concentration 3.0 uM
T4 sequence (whole entry): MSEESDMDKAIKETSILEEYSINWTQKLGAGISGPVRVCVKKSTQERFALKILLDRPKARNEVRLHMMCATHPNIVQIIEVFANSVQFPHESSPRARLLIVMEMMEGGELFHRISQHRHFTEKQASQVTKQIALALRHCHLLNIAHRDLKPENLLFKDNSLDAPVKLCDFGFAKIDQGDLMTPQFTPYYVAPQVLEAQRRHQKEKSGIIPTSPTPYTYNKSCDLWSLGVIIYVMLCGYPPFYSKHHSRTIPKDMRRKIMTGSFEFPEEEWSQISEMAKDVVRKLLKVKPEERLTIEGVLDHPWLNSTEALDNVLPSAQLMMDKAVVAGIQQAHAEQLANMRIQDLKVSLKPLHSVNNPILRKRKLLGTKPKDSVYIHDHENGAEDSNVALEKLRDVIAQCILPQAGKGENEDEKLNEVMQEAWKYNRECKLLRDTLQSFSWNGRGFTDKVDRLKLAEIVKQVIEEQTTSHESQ

Measured: residual activity

CN(C)C(=O)Cn1cc(-c2nc([C@@](C)(c3ccc(-c4cnc(N)nc4)cc3)C3CC3)no2)cn1 [BI 665915]
inactive: [1] 96% | [2] 60% | [3] 95% | [4] 118% | [5] 102% | [6] 86% | [7] 85% | [8] 88% | [9] 104% | [10] 98.5%
